# Assay results reported in ChEMBL document CHEMBL3885861, “Open TG-GATES”.
# Organism: Rattus norvegicus
# Assay: Open TG-GATES - Regimen: Daily Repeat
# Format: toxicity, organism-based, Sprague-Dawley
# Set-up: regimen Daily Repeat, gender Male, age 6 weeks
# Conditions: in vivo, iv, route intravenous injection; for gamma-GTP / A/G / ALP / ALT / AST / BUN / CRE / Ca / Cl / DBIL / GLC / IP / K / LDH / Na / PL / RALB / TBIL / TC / TG / TP: tissue Plasma; for APTT / Bas / Eos / Fbg / Hb / Ht / Lym / MCH / MCHC / MCV / Mono / Neu / PT / Plat / RBC / Ret / WBC: tissue Blood; for KIDNEY_L / KIDNEY_R / KIDNEY_TOTAL: tissue Kidney; for LIVER: tissue Liver
# [1] = 4 mg/kg, […], dose level Low, time 14 day
# [2] = 4 mg/kg, […], dose level Low, time 28 day
# [3] = 12 mg/kg, 72 h, dose level Middle, time 3 day
# [4] = 12 mg/kg, […], dose level Middle, time 7 day
# [5] = 12 mg/kg, […], dose level Middle, time 14 day
# [6] = 12 mg/kg, […], dose level Middle, time 28 day
# [7] = 40 mg/kg, 72 h, dose level High, time 3 day
# [8] = 40 mg/kg, […], dose level High, time 7 day
structure (smiles),measurement,setting,value
CN(C)c1ncnc2c1ncn2[C@@H]1O[C@H](CO)[C@@H](N)[C@H]1O [PUROMYCIN AMINONUCLEOSIDE],gamma-GTP,"4 mg/kg, […], dose level Low, time 7 day",1.6 IU/L
same,A/G,[1],1.1
same,ALP,[1],1081.2 IU/L
same,ALT,[1],35.8 IU/L
same,AST,[1],64.2 IU/L
same,BUN,[1],19.2 mg/dL
same,CRE,[1],0.2 mg/dL
same,Ca,[1],10.9 mg/dL
same,Cl,[1],106.8 meq/L
same,DBIL,[1],0 mg/dL
same,GLC,[1],179.4 mg/dL
same,IP,[1],6.8 mg/dL
same,K,[1],4.2 meq/L
same,LDH,[1],141.2 IU/L
same,Na,[1],142.8 meq/L
same,PL,[1],143.4 mg/dL
same,RALB,[1],2.9 g/dL
same,TBIL,[1],0.002 mg/dL
same,TC,[1],76.8 mg/dL
same,TG,[1],129.2 mg/dL
same,TP,[1],5.5 g/dL
same,gamma-GTP,[1],1.4 IU/L
same,A/G,[2],0.7
same,ALP,[2],666.2 IU/L
same,ALT,[2],34.6 IU/L
same,AST,[2],47 IU/L
same,BUN,[2],17.2 mg/dL
same,CRE,[2],0.2 mg/dL
same,Ca,[2],10.4 mg/dL
same,Cl,[2],104.2 meq/L
same,DBIL,[2],0 mg/dL
same,GLC,[2],181.8 mg/dL
same,IP,[2],6.8 mg/dL
same,K,[2],4.3 meq/L
same,LDH,[2],134 IU/L
same,Na,[2],142.4 meq/L
same,PL,[2],334 mg/dL
same,RALB,[2],2.2 g/dL
same,TBIL,[2],0.006 mg/dL
same,TC,[2],203.8 mg/dL
same,TG,[2],254.2 mg/dL
same,TP,[2],5.4 g/dL
same,gamma-GTP,[2],1.2 IU/L
same,TERMINAL_BW,[3],221.5 g
same,APTT,[3],20.8 s
same,Bas,[3],0%
same,Eos,[3],1%
same,Fbg,[3],305.2 mg/dL
same,Hb,[3],13.2 g/dL
same,Ht,[3],38.5%
same,Lym,[3],86.2%
same,MCH,[3],21 pg
same,MCHC,[3],34.2%
same,MCV,[3],61.4 fL
same,Mono,[3],2%
same,Neu,[3],9.8%
same,PT,[3],16 s
same,Plat,[3],119.7 x10_4/uL
same,RBC,[3],626.8 x10_4/ul
same,Ret,[3],4.3%
same,WBC,[3],80.4 x10_2/uL
same,KIDNEY_L,[3],0.9 g
same,KIDNEY_R,[3],1 g
same,KIDNEY_TOTAL,[3],1.9 g
same,LIVER,[3],9.9 g
same,A/G,[3],1.3
same,ALP,[3],1198.8 IU/L
same,ALT,[3],39.4 IU/L
same,AST,[3],69.4 IU/L
same,BUN,[3],20.8 mg/dL
same,CRE,[3],0.2 mg/dL
same,Ca,[3],11.2 mg/dL
same,Cl,[3],104.6 meq/L
same,DBIL,[3],0 mg/dL
same,GLC,[3],174.4 mg/dL
same,IP,[3],8.2 mg/dL
same,K,[3],4.4 meq/L
same,LDH,[3],145.6 IU/L
same,Na,[3],141.2 meq/L
same,PL,[3],133 mg/dL
same,RALB,[3],3 g/dL
same,TBIL,[3],0.016 mg/dL
same,TC,[3],66.6 mg/dL
same,TG,[3],67.4 mg/dL
same,TP,[3],5.4 g/dL
same,gamma-GTP,[3],1.8 IU/L
same,TERMINAL_BW,[4],243.7 g
same,TERMINAL_BW,[5],292.3 g
same,TERMINAL_BW,[6],237.1 g
same,APTT,[4],21 s
same,Bas,[4],0%
same,Eos,[4],1%
same,Fbg,[4],304.2 mg/dL
same,Hb,[4],13.5 g/dL
same,Ht,[4],38.5%
same,Lym,[4],74.4%
same,MCH,[4],20.6 pg
same,MCHC,[4],35%
same,MCV,[4],58.9 fL
same,Mono,[4],2.6%
same,Neu,[4],21.6%
same,PT,[4],15.8 s
same,Plat,[4],107.5 x10_4/uL
same,RBC,[4],653.8 x10_4/ul
same,Ret,[4],3.3%
same,WBC,[4],93.9 x10_2/uL
same,APTT,[5],18.6 s
same,Bas,[5],0%
same,Eos,[5],0.8%
same,Fbg,[5],561 mg/dL
same,Hb,[5],13.1 g/dL
same,Ht,[5],35.4%
same,Lym,[5],78.2%
same,MCH,[5],20.3 pg
same,MCHC,[5],36.9%
same,MCV,[5],55.1 fL
same,Mono,[5],2.8%
same,Neu,[5],17%
same,PT,[5],13.1 s
same,Plat,[5],181.7 x10_4/uL
same,RBC,[5],641.8 x10_4/ul
same,Ret,[5],1.3%
same,WBC,[5],140.4 x10_2/uL
same,APTT,[6],15.1 s
same,Bas,[6],0%
same,Eos,[6],0.5%
same,Fbg,[6],627 mg/dL
same,Hb,[6],9.5 g/dL
same,Ht,[6],23.8%
same,Lym,[6],60.8%
same,MCH,[6],18.8 pg
same,MCHC,[6],40%
same,MCV,[6],46.9 fL
same,Mono,[6],5.2%
same,Neu,[6],32%
same,PT,[6],15.2 s
same,Plat,[6],137.6 x10_4/uL
same,RBC,[6],498.2 x10_4/ul
same,Ret,[6],0.5%
same,WBC,[6],106.1 x10_2/uL
same,KIDNEY_L,[4],1 g
same,KIDNEY_R,[4],1 g
same,KIDNEY_TOTAL,[4],2 g
same,KIDNEY_L,[5],1.6 g
same,KIDNEY_R,[5],1.6 g
same,KIDNEY_TOTAL,[5],3.2 g
same,KIDNEY_L,[6],2.3 g
same,KIDNEY_R,[6],2.3 g
same,KIDNEY_TOTAL,[6],4.6 g
same,LIVER,[4],10.4 g
same,LIVER,[5],12.1 g
same,LIVER,[6],12.8 g
same,A/G,[4],1.1
same,ALP,[4],1114.8 IU/L
same,ALT,[4],36.8 IU/L
same,AST,[4],66.4 IU/L
same,BUN,[4],21.8 mg/dL
same,CRE,[4],0.2 mg/dL
same,Ca,[4],10.8 mg/dL
same,Cl,[4],107.2 meq/L
same,DBIL,[4],0.002 mg/dL
same,GLC,[4],174.8 mg/dL
same,IP,[4],7.5 mg/dL
same,K,[4],4.2 meq/L
same,LDH,[4],139.2 IU/L
same,Na,[4],140.4 meq/L
same,PL,[4],139.2 mg/dL
same,RALB,[4],2.8 g/dL
same,TBIL,[4],0.014 mg/dL
same,TC,[4],76.2 mg/dL
same,TG,[4],86.8 mg/dL
same,TP,[4],5.3 g/dL
same,gamma-GTP,[4],1.4 IU/L
same,A/G,[5],0.5
same,ALP,[5],267.4 IU/L
same,ALT,[5],31.4 IU/L
same,AST,[5],35.8 IU/L
same,BUN,[5],77.4 mg/dL
same,CRE,[5],0.5 mg/dL
same,Ca,[5],9.3 mg/dL
same,Cl,[5],107.6 meq/L
same,DBIL,[5],0 mg/dL
same,GLC,[5],180.8 mg/dL
same,IP,[5],7.8 mg/dL
same,K,[5],4 meq/L
same,LDH,[5],214.2 IU/L
same,Na,[5],143.4 meq/L
same,PL,[5],533 mg/dL
same,RALB,[5],1.3 g/dL
same,TBIL,[5],0 mg/dL
same,TC,[5],344.6 mg/dL
same,TG,[5],454 mg/dL
same,TP,[5],4.1 g/dL
same,gamma-GTP,[5],1.8 IU/L
same,A/G,[6],0.4
same,ALP,[6],137.2 IU/L
same,ALT,[6],61 IU/L
same,AST,[6],53.2 IU/L
same,BUN,[6],86.5 mg/dL
same,CRE,[6],1.1 mg/dL
same,Ca,[6],8.4 mg/dL
same,Cl,[6],104 meq/L
same,DBIL,[6],0 mg/dL
same,GLC,[6],158.8 mg/dL
same,IP,[6],8.8 mg/dL
same,K,[6],3.9 meq/L
same,LDH,[6],391.8 IU/L
same,Na,[6],142.2 meq/L
same,PL,[6],854.5 mg/dL
same,RALB,[6],1.3 g/dL
same,TBIL,[6],0.0025 mg/dL
same,TC,[6],589 mg/dL
same,TG,[6],351 mg/dL
same,TP,[6],4.5 g/dL
same,gamma-GTP,[6],2.8 IU/L
same,TERMINAL_BW,[7],218.3 g
same,APTT,[7],19.2 s
same,Bas,[7],0%
same,Eos,[7],0.6%
same,Fbg,[7],356 mg/dL
same,Hb,[7],13.3 g/dL
same,Ht,[7],38.2%
same,Lym,[7],88.4%
same,MCH,[7],20.4 pg
same,MCHC,[7],34.7%
same,MCV,[7],58.9 fL
same,Mono,[7],2.4%
same,Neu,[7],7.4%
same,PT,[7],15.9 s
same,Plat,[7],136.4 x10_4/uL
same,RBC,[7],649 x10_4/ul
same,Ret,[7],2%
same,WBC,[7],82.2 x10_2/uL
same,KIDNEY_L,[7],0.9 g
same,KIDNEY_R,[7],1 g
same,KIDNEY_TOTAL,[7],1.9 g
same,LIVER,[7],9.6 g
same,A/G,[7],1.2
same,ALP,[7],892.8 IU/L
same,ALT,[7],40.6 IU/L
same,AST,[7],62 IU/L
same,BUN,[7],24.2 mg/dL
same,CRE,[7],0.2 mg/dL
same,Ca,[7],12.3 mg/dL
same,Cl,[7],102.8 meq/L
same,DBIL,[7],0 mg/dL
same,GLC,[7],179.6 mg/dL
same,IP,[7],10.8 mg/dL
same,K,[7],4.4 meq/L
same,LDH,[7],154.8 IU/L
same,Na,[7],141.2 meq/L
same,PL,[7],153 mg/dL
same,RALB,[7],3 g/dL
same,TBIL,[7],0.022 mg/dL
same,TC,[7],82 mg/dL
same,TG,[7],64.4 mg/dL
same,TP,[7],5.5 g/dL
same,gamma-GTP,[7],1.8 IU/L
same,TERMINAL_BW,[8],221.5 g
same,APTT,[8],18 s
same,Bas,[8],0%
same,Eos,[8],0.6%
same,Fbg,[8],621.8 mg/dL
same,Hb,[8],13.7 g/dL
same,Ht,[8],37.4%
same,Lym,[8],84.8%
same,MCH,[8],20.5 pg
same,MCHC,[8],36.6%
same,MCV,[8],56.2 fL
same,Mono,[8],2.6%
same,Neu,[8],10.8%
same,PT,[8],13 s
same,Plat,[8],106.2 x10_4/uL
same,RBC,[8],665.2 x10_4/ul
same,Ret,[8],0.8%
same,WBC,[8],108.1 x10_2/uL
same,KIDNEY_L,[8],1.2 g
same,KIDNEY_R,[8],1.2 g
same,KIDNEY_TOTAL,[8],2.4 g
same,LIVER,[8],8.2 g
same,A/G,[8],0.4
same,ALP,[8],264.4 IU/L
same,ALT,[8],65.8 IU/L
same,AST,[8],78.6 IU/L
same,BUN,[8],166.8 mg/dL
same,CRE,[8],1 mg/dL
same,Ca,[8],9.1 mg/dL
same,Cl,[8],101 meq/L
same,DBIL,[8],0 mg/dL
same,GLC,[8],164.4 mg/dL
same,IP,[8],12.6 mg/dL
same,K,[8],5 meq/L
same,LDH,[8],484 IU/L
same,Na,[8],135.4 meq/L
same,PL,[8],387.2 mg/dL
same,RALB,[8],1.1 g/dL
same,TBIL,[8],0.01 mg/dL
same,TC,[8],266.6 mg/dL
same,TG,[8],125.6 mg/dL
same,TP,[8],3.5 g/dL
same,gamma-GTP,[8],2.4 IU/L
